# According to publication PMC5543107, “Inhibition of glutamate decarboxylase (GAD) by ethyl ketopentenoate (EKP) induces treatment-resistant epileptic seizures in zebrafish” (Scientific Reports, 2017):
# “And” between values parts separate entries of the source, which are not always exact repeats. Equal entries are not always repeated.
# What was measured:
# zebrafish larvae = system: zebrafish larvae; parameters: method as in PMID 25845493; settings: AG 200 mM − 300 mM; cited from earlier work
# GAD = biological target: GAD; parameters: method as in PMID 29640; settings: in vitro studies; read-out: Ki for GAD inhibition; cited from earlier work
# [1] = system: Tg(elavl3:GA) zebrafish larvae; experiment: Neuroluminescence recording of Tg(elavl3:eGFP-apoAequorin) larvae exposed to EKP; type: in vivo, Danio rerio; settings: 400 µM EKP, 30-min recording, vs VHC
# Experimental: Tg(elavl3:eGFP-apoAequorin) zebrafish larvae were visually screened for even GFP expression at 3 dpf. Selected larvae were incubated with VHC in 40 µM CLZN-h for 18–24 h in the dark at 28 °C[38]. Excess of CLZN-h was removed by washing larvae repeatedly in E3 medium afterwards. […] The recordings started each time exactly 5 min after EKP exposure and were continued for 30 min. Photons emitted were detected by a photon-counting tube (Type H3460–04, Hamamatsu Photonics, Japan) that was positioned about 2 cm above the larvae. Light impulses were discriminated, prescaled and counted with a PC-based 32-bit counter/timer board (PCI-6601, National Instruments Corporation, Austin, TX, USA). The number of impulses occurring during a 5-sec time interval was monitored with custom-built software. Analysis of the bioluminescence recordings was done in a blinded way.
# 7 dpf zebrafish larvae [2] = experiment: Survival rate of larvae exposed to EKP; type: in vivo, Danio rerio; settings: 400 μM EKP, first 30 min
# Experimental: Larvae (7 dpf) were arrayed individually in a 96-well plate, exposed to EKP (200 μM-800 μM) or VHC (control) and immediately scored under a stereomicroscope for lethality every 5 min for 1 h.
# 7 dpf zebrafish larvae [3] = experiment: EKP-induced locomotor activity, automated video tracking; type: in vivo, Danio rerio
# Experimental: Larvae (6 dpf) in 100 µl VHC were arrayed individually in a 96-well plate (tissue culture plate, flat bottom, Falcon, USA) and kept for 18 h in the dark at 28 °C. Prior to tracking the following day (7 dpf) 100 μl of VHC or EKP stock solution was added to each well to obtain a range of EKP concentrations (200 μM-800 μM). The plates were placed in an automated video tracking device (ZebraBox^TM apparatus; Viewpoint, Lyon, France) and 5 min later the locomotor behavior of the larvae was monitored for 2 h in the dark at 28 °C. Locomotor activity was quantified using ZebraLab™ software (Viewpoint, Lyon, France) and expressed in “actinteg” units per 5-min interval. The actinteg value is defined as the sum of all image pixel changes detected during the time window.
# These seizures are defined as rapid corkscrew-like accompanied with entire body jerking and twitching, which are easily distinguished from other behavioral abnormalities (for description of phase 1 and 3 seizures, see results).
# 7 dpf zebrafish larvae [4] = experiment: Local field potential (LFP) recordings in the optic tectum after EKP; type: in vivo, Danio rerio
# Experimental: Larvae (6 dpf) in 100 µl VHC were arrayed individually in a 96-well plate and kept for 18 h in the dark at 28 °C. […] Next, the treated larva was embedded ventral side down in 2% low melting point agarose bathed in artificial cerebrospinal fluid (ACSF, 124 mM NaCl, 2 mM KCl, 2 mM MgSO4, 2 mM CaCl2, 1.25 mM KH2PO4, 26 mM NaHCO3, and 10 mM glucose). A blunt glass electrode (soda lime glass, Hilgenberg, Germany) was pulled with DMZ Universal Puller (Zeitz, Germany) to an opening of 15–20 microns, filled with ACSF and placed on the skin above the optic tectum. The recordings were performed using WinEDR (John Dempster, University of Strathclyde, UK). Differential signal was band pass filtered at 0.3–300 Hz and digitized at 2 kHz via a PCI-6251 interface (National Instruments, UK). LFP recordings started each time exactly 2 min after the removal of the larva from the EKP solution (or VHC) and were continued for 10 min at room temperature (24 °C).
# EKP-induced events were considered as epileptiform activity when their signal exceeded three times the baseline and lasted for minimum 100 msec, as described previously. Electrophysiological recordings were analyzed in a blinded way using Clampfit 10.2 software (Molecular Devices, USA).
# c-fos expression = c-fos expression in larval heads by qPCR; type: in vivo, Danio rerio; settings: 7 dpf larval heads, 15 min, 400 μM EKP or 20 mM PTZ (positive control)
# Experimental: To measure the seizure-related changes in c-fos mRNA expression in the CNS, 12 larvae (7 dpf) were treated with either 20 mM PTZ, 400 μM EKP or VHC for 15 min and then rapidly decapitated. The heads were immediately processed for RNA isolation followed by cDNA synthesis as described for gad1b and gad2. qPCR analysis of c-fos mRNA expression using Bio-Rad 20x PrimePCR assays (c-fos assay ID: qDreCED0015103) was performed as described for gad1b and gad2, and normalized to the housekeeping gene ef1α and β-actin 1 (primers, Table S1).
# mice = system: mice; parameters: method as in PMID 29640; settings: intracerebroventricular (icv) administration; cited from earlier work
# [5] = system: EKP-treated Tg(elavl3:GA) zebrafish larvae; experiment: Effect of ASDs on EKP-induced neuroluminescent events; type: in vivo, Danio rerio; settings: ASD at MTC (ETS 250 µM, TGB 50 µM), 18 h, 400 µM EKP, 30-min recording
# Experimental: Recordings were performed as described earlier.
# [6] = system: EKP-treated zebrafish larvae; experiment: Effect of ASDs on EKP-induced epileptiform discharges (LFP); type: in vivo, Danio rerio; settings: ASD at MTC, 18 h pre-incubation, 400 µM EKP, 10-min LFP recording
# Experimental: Then, the larvae were treated with 400 µM EKP (or VHC), embedded in agarose, and the LFP recordings were performed as described earlier.
# [7] = system: EKP-treated zebrafish larvae; experiment: Effect of ASDs on EKP-induced locomotion activity; type: in vivo, Danio rerio; settings: ASD at MTC, 18 h pre-incubation, 400 µM EKP
# Experimental: Then, the larvae were treated with 400 µM EKP (or VHC) and the locomotion activity was monitored for 30 min (after 5 min of habituation) as described earlier. The average amount of movement per 5-min intervals was measured, quantified and normalized to the EKP control group for the entire 30-min tracking session or per 5-min interval.
# [8] = 7 dpf larvae, 200-800 μM tested
compound,measurement,setting,value
"C=CCC(N)C(=O)O (stereo not drawn) [AG, 2-amino-4-pentenoic acid]",Outcome of seizures at high AG concentrations,zebrafish larvae,lethal
same,Ki,GAD,~50 mM
ethyl ketopentenoate [EKP],Averaged aequorin light signal,[1],increased
same,Larval death,7 dpf zebrafish larvae [2],without inducing any larval death
same,Locomotor activity,"7 dpf zebrafish larvae [3]; 400 μM EKP, 7 dpf larvae, vs VHC",robust increase of locomotor activity
same,EKP concentrations at which a second phase (hyperactivity plateau) followed,7 dpf zebrafish larvae [3]; [8],≥ 300 µM
same,"EKP concentrations with third phase (irreversible decline of total larval movement, paralysis, death)",7 dpf zebrafish larvae [3]; [8],300 to 800 µM
same,Fold lower concentration inducing hyperactivity compared with AG,"7 dpf zebrafish larvae [3]; zebrafish larvae, AG data ref 13",100 fold
same,Mean frequency of epileptiform events,"7 dpf zebrafish larvae [4]; 400 μM EKP 15 min, optic tectum, 10-min recording, n = 58",55.76 ± 6.87 events/10 min and 55.76 ± 6.872 events/10 min
same,Larvae with multiple epileptiform events,"7 dpf zebrafish larvae [4]; 400 μM EKP, number of larvae out of total",58/58
same,c-fos expression compared to VHC,c-fos expression,significantly increased
C=CC[C@H](N)C(=O)O [L-AG],ED50 for seizure induction,mice,375 µg/kg
"CCOC(=O)Nc1ccc(NCc2ccc(F)cc2)cc1N [RGB, retigabine]",Effect on EKP-induced neuronal activity (cumulative photons emitted),[5],significantly diminished
same,Effect on number of epileptiform discharges generated by EKP,[6],did not show significant effects
C=CC[C@@H](N)C(=O)O [D-AG],ED50 for seizure induction,mice,804 µg/kg
"NS(=O)(=O)Cc1noc2ccccc12 [ZSM, zonisamide]",Effect on EKP-induced neuronal activity (cumulative photons emitted),[5],significantly diminished
same,Effect on number of epileptiform discharges generated by EKP,[6],significantly attenuated
"CC1(C)O[C@@H]2[C@@H](CO[C@@]3(COS(N)(=O)=O)OC(C)(C)O[C@@H]23)O1 [TPM, topiramate]",Effect on EKP-induced neuronal activity (cumulative photons emitted),[5],significantly diminished
same,Effect on number of epileptiform discharges generated by EKP,[6],significantly attenuated
"C=CCC(=O)C(=O)O [KPA, 2-keto-4-pentenoic acid]",ED50 for seizure induction,mice,14.5 µg/kg
same,Ki,GAD,0.001 mM
"N#Cc1ccccc1-c1cc(-c2ccccn2)cn(-c2ccccc2)c1=O [PER, perampanel]",Effect on EKP-induced neuronal activity (cumulative photons emitted),[5],significantly diminished
same,Effect on EKP-induced locomotion (whole 30-min recording),[7],significantly prevented
same,Effect on number of epileptiform discharges generated by EKP,[6],significantly attenuated
"C1CCc2nnnn2CC1 [PTZ, Pentylenetetrazol]",c-fos expression compared to VHC,c-fos expression,significantly increased
"O=C1NC(=O)C(c2ccccc2)(c2ccccc2)N1 [PHT, phenytoin]",Effect on EKP-induced neuronal activity (cumulative photons emitted),[5],significantly diminished
same,Effect on number of epileptiform discharges generated by EKP,[6],did not show significant effects
